Laboratory results published in patent publication US8246981B2, “Transdermal method and patch for emesis” (Abeille Pharamaceuticals, Inc., priority 2005, dated 2012).

Details: IV bolus, once-daily 2 mg/day
Experimental: A randomized crossover clinical study was conducted in 11 individuals who received either a transdermal patch or an IV solution of granisetron. […] This was followed by a 10 day wash-out period, after which the same individuals received granisetron IV in once-daily dosages of 2 mg/day Individuals who received the IV treatment in the first period received a transdermal patch in the cross over treatment. Blood plasma levels of granisetron for all of the individuals in the test were measured periodically during the 96 hour time that the patches were being worn and the IV dosages were being administered, and for an additional 2 days after the patches were removed and the IV administration discontinued.

blood plasma level profile: sharp spikes in blood plasma levels
Compound: CN1C2CCCC1CC(NC(=O)c1nn(C)c3ccccc13)C2 (stereo not shown) [IV granisetron, granisetron]
